Assay results reported in BindingDB's records for doi:10.1016/s0960-894x(01)00014-2 (Rensselaer Polytechnic Institute, 2001).
pKi: −log10 of the molar value.

Assay: Displacement of [3H]naltrindole from Opioid receptor delta 1 of guinea pig brain membranes

Question: With `C[C@H]1C2Cc3ccc(C(=O)Nc4ccccc4)cc3[C@@]1(C)CCN2CC1CC1` [3-cyclopropylmethyl-6,11-dimethyl-1,2,3,4,5,6-hexahydro-2,6-methano-benzo[d]azocine-8-carboxylic acid phenylamide] as the compound, how does the pKi read?
Answer: 5.85

Question: With `C[C@H]1C2Cc3ccc(C#N)cc3[C@@]1(C)CCN2CC1CC1` [(6S,11R)-3-Cyclopropylmethyl-6,11-dimethyl-1,2,3,4,5,6-hexahydro-2,6-methano-benzo[d]azocine-8-carbonitrile] as the compound, how does the pKi read?
Answer: 5.57

Question: With `C[C@@H]1[C@@H]2Cc3ccc(C(N)=O)cc3[C@]1(C)CCN2CC1CC1` [(6S,11R)-3-Cyclopropylmethyl-6,11-dimethyl-1,2,3,4,5,6-hexahydro-2,6-methano-benzo[d]azocine-8-carboxylic acid amide] as the compound, how does the pKi read?
Answer: 6.24

Question: With `C[C@H]1[C@H]2Cc3ccc(C(N)=O)cc3[C@@]1(C)CCN2CC1CC1` [(6S,11R)-3-Cyclopropylmethyl-6,11-dimethyl-1,2,3,4,5,6-hexahydro-2,6-methano-benzo[d]azocine-8-carboxylic acid amide] as the compound, how does the pKi read?
Answer: 8.59

Question: With `C[C@H]1C2Cc3ccc(C(=O)N(C)C)cc3[C@@]1(C)CCN2CC1CC1` [(6S,11R)-3-Cyclopropylmethyl-6,11-dimethyl-1,2,3,4,5,6-hexahydro-2,6-methano-benzo[d]azocine-8-carboxylic acid dimethylamide] as the compound, how does the pKi read?
Answer: < 4.46

Question: With `COC(=O)c1ccc2c(c1)[C@@]1(C)CCN(CC3CC3)C(C2)[C@@H]1C` [(6S,11R)-3-Cyclopropylmethyl-6,11-dimethyl-1,2,3,4,5,6-hexahydro-2,6-methano-benzo[d]azocine-8-carboxylic acid methyl ester] as the compound, how does the pKi read?
Answer: 7.23

Question: With `CNC(=O)c1ccc2c(c1)[C@@]1(C)CCN(CC3CC3)C(C2)[C@@H]1C` [(6S,11R)-3-Cyclopropylmethyl-6,11-dimethyl-1,2,3,4,5,6-hexahydro-2,6-methano-benzo[d]azocine-8-carboxylic acid methylamide] as the compound, how does the pKi read?
Answer: 7.20

Question: With `C[C@H]1C2Cc3ccc(C(=O)O)cc3[C@@]1(C)CCN2CC1CC1` [(6S,11R)-3-Cyclopropylmethyl-6,11-dimethyl-1,2,3,4,5,6-hexahydro-2,6-methano-benzo[d]azocine-8-carboxylic acid] as the compound, how does the pKi read?
Answer: 6.49
